{"source": "patent US12721349B2", "about": "“Method for promoting bacterial cell wall degradation” (KABUSHIKI KAISHA YAKULT HONSHA, priority 2019, dated 2026)", "key": {"[1]": {"tested_on": "Lactobacillus casei YIT 9029", "assay": "Cell wall degradation of YIT 9029 by mutanolysin (recombinant) alone with added saccharide, turbidity OD615", "assay_type": "cell-based", "conditions": "37° C.; for degradation-promoting effect, mutanolysin alone: 0.5, 1.0 or 1.5 M, FIG. 5B", "experimental": "The bacteria were suspended in a 5 mM Tris-maleate buffer solution (manufactured by Sigma-Aldrich Co.) (pH 6.4) of the same volume as that of the original bacterial solution, and 100 μg of lysozyme from chicken egg white lyophilized powder (manufactured by Sigma-Aldrich Co., hereinafter, referred to as lysozyme), which is egg white lysozyme, and 100 U of mutanolysin (recombinant) (manufactured by A&A Biotechnology) were added per 1 mL of the suspension. The reaction solution was treated at 37° C. for 24 hours. In addition, in order to examine the influence of the addition of a saccharide on cell wall degradation reaction, the same reaction was performed using a Tris-maleate buffer solution containing D-glucose or L-rhamnose at a final concentration of 0.5 M instead of the Tris-maleate buffer solution. Each reaction was performed in triplicate. The turbidity (OD615) of the bacterial suspension at 615 nm (maximal absorption wavelength; measurement wavelength range: 575-660 nm) was measured over time using a spectrophotometer PiCOSCOPE PAS-110 (manufactured by Ushio Inc.), and the degradation rate was calculated by the following equation (1). The degradation rate was shown by the mean±standard deviation of triplicate. Degradation rate=1−(OD615 after reaction/OD615 before reaction) (1). (6) Result It was expected from Examples 1 to 4 that a saccharide such as D-arabinose increases the activity of mutanolysin to promote the degradation of cell wall. However, since a possibility that the saccharide increases the activity of lysozyme that has been added together cannot be excluded, the degradation rate when YIT 9029 was treated with mutanolysin or lysozyme alone was examined using some saccharides. […] Each reaction was performed without replicates. […] Each reaction was performed in triplicate."}, "[2]": {"tested_on": "Lactobacillus casei YIT 9029", "assay": "Cell wall degradation of YIT 9029 by lysozyme and mutanolysin (recombinant) with added saccharide, turbidity OD615", "assay_type": "cell-based", "conditions": "for difference between the promotion effects of the D-form and the L-form: 0.1 M to 1.5 M; for difference between the promotion effects of the D-form and the L-form / concentration dependence of the degradation rate: FIG. 6; for concentration dependence of the degradation rate: concentration range of 0.1 M and 1.0 M"}, "[3]": {"tested_on": "Lactobacillus casei YIT 9029", "assay": "Cell wall degradation of YIT 9029 by lysozyme alone with added saccharide, turbidity OD615", "assay_type": "cell-based", "conditions": "1.5 M, 37° C., FIG. 5A", "experimental": "The bacteria were suspended in a 5 mM Tris-maleate buffer solution (manufactured by Sigma-Aldrich Co.) (pH 6.4) of the same volume as that of the original bacterial solution, and 100 μg of lysozyme from chicken egg white lyophilized powder (manufactured by Sigma-Aldrich Co., hereinafter, referred to as lysozyme), which is egg white lysozyme, and 100 U of mutanolysin (recombinant) (manufactured by A&A Biotechnology) were added per 1 mL of the suspension. The reaction solution was treated at 37° C. for 24 hours. In addition, in order to examine the influence of the addition of a saccharide on cell wall degradation reaction, the same reaction was performed using a Tris-maleate buffer solution containing D-glucose or L-rhamnose at a final concentration of 0.5 M instead of the Tris-maleate buffer solution. Each reaction was performed in triplicate. The turbidity (OD615) of the bacterial suspension at 615 nm (maximal absorption wavelength; measurement wavelength range: 575-660 nm) was measured over time using a spectrophotometer PiCOSCOPE PAS-110 (manufactured by Ushio Inc.), and the degradation rate was calculated by the following equation (1). The degradation rate was shown by the mean±standard deviation of triplicate. Degradation rate=1−(OD615 after reaction/OD615 before reaction) (1). […]"}, "[4]": {"assay": "Solubility in water at room temperature", "assay_type": "physicochemical", "conditions": "read-out: upper limit of the solubility in water"}, "[5]": {"tested_on": "Lactobacillus casei YIT 9029", "assay": "Cell wall degradation of YIT 9029 by lysozyme and mutanolysin (recombinant) with added saccharide, turbidity OD615", "assay_type": "cell-based", "conditions": "saccharide 0.5 M, 37° C.; for cell wall degradation-promoting effect / cell wall degradation-promoting effect after 1 hour of the reaction: FIG. 4; for cell wall degradation rate compared with the reaction in which no saccharide was added: up to 24 hours, FIG. 1", "experimental": "Lactobacillus casei YIT 9029 (hereinafter, referred to as YIT 9029) was used. Thirty microliters of the pre-cultured bacterial solution of about 2×10^9 CFU/mL cultured in the MRS Broth was inoculated in 30 mL of the MRS Broth prepared in the above (2) and then cultured at 37° C. for 24 hours. […] The bacteria were suspended in a 5 mM Tris-maleate buffer solution (manufactured by Sigma-Aldrich Co.) (pH 6.4) of the same volume as that of the original bacterial solution, and 100 μg of lysozyme from chicken egg white lyophilized powder (manufactured by Sigma-Aldrich Co., hereinafter, referred to as lysozyme), which is egg white lysozyme, and 100 U of mutanolysin (recombinant) (manufactured by A&A Biotechnology) were added per 1 mL of the suspension. The reaction solution was treated at 37° C. for 24 hours. In addition, in order to examine the influence of the addition of a saccharide on cell wall degradation reaction, the same reaction was performed using a Tris-maleate buffer solution containing D-glucose or L-rhamnose at a final concentration of 0.5 M instead of the Tris-maleate buffer solution. Each reaction was performed in triplicate. The turbidity (OD615) of the bacterial suspension at 615 nm (maximal absorption wavelength; measurement wavelength range: 575-660 nm) was measured over time using a spectrophotometer PiCOSCOPE PAS-110 (manufactured by Ushio Inc.), and the degradation rate was calculated by the following equation (1). The degradation rate was shown by the mean±standard deviation of triplicate. Degradation rate=1−(OD615 after reaction/OD615 before reaction) (1). (6) Result […] Each reaction was performed in triplicate. The same reaction as in Example 1 was performed except that D-arabinose, L-arabinose, D-lyxose, L-lyxose, D-xylose, L-xylose, D-ribose, L-ribose, D-fucose, L-fucose, D-mannose, L-mannose, D-galactose, or D-fructose was added as the saccharide, and the cell wall degradation-promoting effect of each saccharide was examined. Each reaction was performed in triplicate. […] Each reaction was performed in triplicate."}, "[6]": {"tested_on": "Lactobacillus casei YIT 9029", "assay": "Cell wall degradation of YIT 9029 by lysozyme and mutanolysin from Streptomyces globisporus ATCC 21553 with added saccharide, turbidity OD615", "assay_type": "cell-based", "conditions": "1.5 M, 37° C. or 50° C., mutanolysin from Streptomyces globisporus ATCC 21553, FIG. 3A", "experimental": "The reaction solution was treated at 37° C. for 24 hours. In addition, in order to examine the influence of the addition of a saccharide on cell wall degradation reaction, the same […] buffer solution. Each reaction was performed in triplicate. The turbidity (OD615) of the bacterial suspension at 615 nm (maximal absorption wavelength; measurement wavelength range: 575-660 nm) was measured over time using a spectrophotometer PiCOSCOPE PAS-110 (manufactured by Ushio Inc.), and the degradation rate was calculated by the following equation (1). The degradation rate was shown by the mean±standard deviation of triplicate. Degradation rate=1−(OD615 after reaction/OD615 before reaction) (1). (6) Result […] Each reaction was performed without replicates."}}, "data": [{"smiles": "O=C[C@@H](O)[C@H](O)[C@H](O)CO", "note": "[D-arabinose]", "values": [{"measurement": "promotion of degradation, mutanolysin alone", "setting": "[1]; 1.5 M, FIG. 5A", "result": "promoted the degradation"}, {"measurement": "difference between the promotion effects of the D-form and the L-form", "setting": "[2]; 37° C. or 50° C.", "result": "no difference"}, {"measurement": "promotion of degradation, mutanolysin and lysozyme in combination", "setting": "[2]; 1.5 M, 37° C., FIG. 5A", "result": "promoted the degradation"}, {"measurement": "degradation rate after 1 hour", "setting": "[2]; 1.5 M, 50° C., FIG. 7", "result": 93, "unit": "%"}, {"measurement": "concentration dependence of the degradation rate", "setting": "[2]", "result": "concentration dependence was observed"}, {"measurement": "degradation rate at 50° C. compared with 37° C.", "setting": "[2]; reaction for a short time, FIG. 7", "result": "higher"}, {"measurement": "promotion of degradation, lysozyme alone", "setting": "[3]", "result": "did not show significant promotion of degradation"}, {"measurement": "solubility", "setting": "[4]", "result": "~1500", "unit": "mM"}, {"measurement": "degradation rate after 1 hour of the reaction relative to the reaction in which no saccharide was added", "setting": "[5]", "result": "about 4 times"}, {"measurement": "cell wall degradation-promoting effect", "setting": "[5]", "result": "showed the cell wall degradation-promoting effect"}]}, {"smiles": "O=C(CO)[C@@H](O)[C@H](O)[C@H](O)CO", "note": "[D-fructose]", "values": [{"measurement": "cell wall degradation-promoting effect after 1 hour of the reaction", "setting": "[5]", "result": "showed the cell wall degradation-promoting effect"}]}, {"smiles": "O=C[C@H](O)[C@@H](O)[C@H](O)[C@H](O)CO", "note": "[D-glucose, reference compound]", "values": [{"measurement": "cell wall degradation rate compared with the reaction in which no saccharide was added", "setting": "[5]", "result": "decrease in cell wall degradation rate"}]}, {"smiles": "O=C[C@@H](O)[C@@H](O)[C@H](O)CO", "note": "[D-lyxose]", "values": [{"measurement": "cell wall degradation-promoting effect", "setting": "[5]", "result": "showed the cell wall degradation-promoting effect"}]}, {"smiles": "O=C[C@H](O)[C@H](O)[C@H](O)CO", "note": "[D-ribose]", "values": [{"measurement": "cell wall degradation-promoting effect", "setting": "[5]", "result": "showed the cell wall degradation-promoting effect"}]}, {"smiles": "O=C[C@H](O)[C@@H](O)[C@H](O)CO", "note": "[D-xylose]", "values": [{"measurement": "cell wall degradation-promoting effect after 1 hour of the reaction", "setting": "[5]", "result": "showed the cell wall degradation-promoting effect"}]}, {"smiles": "O=C[C@H](O)[C@@H](O)[C@@H](O)CO", "note": "[L-arabinose]", "values": [{"measurement": "degradation-promoting effect, mutanolysin alone", "setting": "[1]", "result": "showed the degradation-promoting effect"}, {"measurement": "difference between the promotion effects of the D-form and the L-form", "setting": "[2]; 37° C. or 50° C.", "result": "no difference"}, {"measurement": "concentration dependence of the degradation rate", "setting": "[2]", "result": "concentration dependence was observed"}, {"measurement": "solubility", "setting": "[4]", "result": "~1500", "unit": "mM"}, {"measurement": "degradation rate after 1 hour of the reaction relative to the reaction in which no saccharide was added", "setting": "[5]", "result": "about 4 times"}, {"measurement": "cell wall degradation-promoting effect", "setting": "[5]", "result": "showed the cell wall degradation-promoting effect"}]}, {"smiles": "C[C@H](O)[C@@H](O)[C@@H](O)[C@H](O)C=O", "note": "[L-fucose]", "values": [{"measurement": "degradation-promoting effect, mutanolysin alone", "setting": "[1]", "result": "showed the degradation-promoting effect"}, {"measurement": "degradation rate after 1 hour of the reaction relative to the reaction in which no saccharide was added", "setting": "[5]", "result": "about 3 times"}, {"measurement": "cell wall degradation-promoting effect", "setting": "[5]", "result": "showed the cell wall degradation-promoting effect"}]}, {"smiles": "O=C[C@H](O)[C@H](O)[C@@H](O)CO", "note": "[L-lyxose]", "values": [{"measurement": "cell wall degradation-promoting effect", "setting": "[5]", "result": "showed the cell wall degradation-promoting effect"}]}, {"smiles": "O=C[C@H](O)[C@H](O)[C@@H](O)[C@@H](O)CO", "note": "[L-mannose]", "values": [{"measurement": "degradation-promoting effect, mutanolysin alone", "setting": "[1]", "result": "showed the degradation-promoting effect"}, {"measurement": "cell wall degradation-promoting effect", "setting": "[5]", "result": "showed the cell wall degradation-promoting effect"}]}, {"smiles": "C[C@H](O)[C@H](O)[C@@H](O)[C@@H](O)C=O", "note": "[L-rhamnose]", "values": [{"measurement": "degradation-promoting effect, mutanolysin alone", "setting": "[1]", "result": "showed the degradation-promoting effect"}, {"measurement": "degradation rate with increasing concentrations of L-rhamnose", "setting": "[2]; 0.5, 1.0, 1.5 M, 37° C. or 50° C., FIG. 2", "result": "increased with increasing concentrations"}, {"measurement": "degradation rate after 24 hours of the reaction", "setting": "[2]; 1.5 M, 37° C.", "result": 0.97}, {"measurement": "cell wall degradation rate compared with the reaction in which no saccharide was added", "setting": "[2]; 1.5 M, 37° C. or 50° C., mutanolysin (recombinant), FIG. 3B", "result": "increase in cell wall degradation rate"}, {"measurement": "degradation rate after 5 hours of the reaction", "setting": "[2]; 1.5 M, 37° C., rate = 1-(OD615 after/OD615 before)", "result": 0.83}, {"measurement": "degradation rate after 24 hours of the reaction", "setting": "[2]; 1.5 M, 50° C.", "result": 0.87}, {"measurement": "degradation rate after 1 hour of the reaction", "setting": "[2]; 1.5 M, 50° C., rate = 1-(OD615 after/OD615 before)", "result": 0.69}, {"measurement": "cell wall degradation rate compared with the reaction in which no saccharide was added", "setting": "[6]", "result": "increase in cell wall degradation rate"}, {"measurement": "cell wall degradation rate compared with the reaction in which no saccharide was added", "setting": "[5]", "result": "increase in cell wall degradation rate"}]}, {"smiles": "O=C[C@@H](O)[C@@H](O)[C@@H](O)CO", "note": "[L-ribose]", "values": [{"measurement": "cell wall degradation-promoting effect", "setting": "[5]", "result": "showed the cell wall degradation-promoting effect"}]}, {"smiles": "O=C[C@@H](O)[C@H](O)[C@@H](O)CO", "note": "[L-xylose]", "values": [{"measurement": "cell wall degradation-promoting effect", "setting": "[5]", "result": "showed the cell wall degradation-promoting effect"}]}]}
